How the values were obtained:
[1] = target: T1, CD73 on U138 human neuroglioma cells (Homo sapiens, UniProt P21589); assay: CD73 Cell-Based Assay; conditions: U138 cells, AMP substrate, 2 hours at 37° C., inorganic phosphate by malachite green
T1 construct: U138 cells were obtained from ATCC and cultured in DMEM with 10% FBS; host or cells: U138 human neuroglioma cells
T1 sequence (P21589 27-549): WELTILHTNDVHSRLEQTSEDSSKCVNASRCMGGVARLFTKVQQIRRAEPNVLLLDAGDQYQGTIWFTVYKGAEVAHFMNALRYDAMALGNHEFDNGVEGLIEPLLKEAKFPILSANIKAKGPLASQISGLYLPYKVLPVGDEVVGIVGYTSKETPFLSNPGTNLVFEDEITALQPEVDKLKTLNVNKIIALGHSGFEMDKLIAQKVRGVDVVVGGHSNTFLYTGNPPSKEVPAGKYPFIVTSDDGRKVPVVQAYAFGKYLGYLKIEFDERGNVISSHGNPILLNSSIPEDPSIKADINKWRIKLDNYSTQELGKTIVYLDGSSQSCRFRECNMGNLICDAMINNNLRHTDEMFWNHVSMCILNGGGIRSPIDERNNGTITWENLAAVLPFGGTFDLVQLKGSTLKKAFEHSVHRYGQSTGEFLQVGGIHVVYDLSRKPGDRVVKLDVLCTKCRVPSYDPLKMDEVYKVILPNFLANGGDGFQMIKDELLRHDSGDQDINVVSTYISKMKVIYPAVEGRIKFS
In short: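 Whole U138 cells washed free of phosphate were incubated with 200 μM AMP (mixture concentration before equal-volume addition) plus compound in HEPES-buffered saline, pH 7.4, for 2 h at 37 °C, 5% CO2. Adenosine-forming activity read as inorganic phosphate released into supernatant by malachite green.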

[2] = target: T2, Human CD73 (Homo sapiens, UniProt P21589); assay: CD73 Enzyme Assay; assay type: biochemical; conditions: 0.25 nM hCD73, 25 μM AMP, kinetic read at 360 nm; read-out: CD73 Enzyme Assay IC50
T2 construct: purchased R&D Systems; host or cells: CHO cells
T2 sequence (P21589 27-549): T1 sequence (P21589 27-549)

Row | Compound | IC50 [1] | IC50 [2]
1 | O=P(O)(O)COC[C@H]1O[C@@H](n2ccc3c(Oc4ccccc4)nc(Cl)nc32)[C@H](O)[C@@H]1O [Compound 206, [(2R,3S,4R,5R)-5-(2-chloro-4-phenoxy-pyrrolo[2,3-d]-pyrimidin-7-yl)-3,4-dihydroxy-tetrahydro-furan-2-yl]methoxy-methylphosphonic acid] | > 1000 nM | 10 to 100 nM
2 | O=P(O)(O)COC[C@H]1O[C@@H](n2ccc3c(Sc4ccccc4)nc(Cl)nc32)[C@H](O)[C@@H]1O [Compound 207, [(2R,3S,4R,5R)-5-(2-chloro-4-phenyl-sulfanyl-pyrrolo[2,3-d]-pyrimidin-7-yl)-3,4-dihydroxy-tetrahydro-furan-2-yl]methoxy-methylphosphonic acid] | 100 to 1000 nM | 100 to 1000 nM
3 | N#Cc1cn([C@@H]2O[C@H](COCP(=O)(O)O)[C@@H](O)[C@H]2O)c2nc(Cl)nc(NC3CCCC3)c12 [Compound 209, [(2R,3S,4R,5R)-5-[2-chloro-5-cyano-4-(cyclopentylamino)-pyrrolo[2,3-d]-pyrimidin-7-yl]-3,4-dihydroxy-tetrahydro-furan-2-yl]methoxy-methylphosphonic acid] | 100 to 1000 nM | 100 to 1000 nM
4 | O=P(O)(O)COC[C@H]1O[C@@H](n2ccc3c(Nc4ccccc4)nc(Cl)nc32)[C@H](O)[C@@H]1O [Compound 211, [(2R,3S,4R,5R)-5-(4-anilino-2-chloro-pyrrolo[2,3-d]-pyrimidin-7-yl)-3,4-dihydroxy-tetrahydro-furan-2-yl]methoxy-methylphosphonic acid] | 100 to 1000 nM | 100 to 1000 nM
5 | O=P(O)(O)COC[C@H]1O[C@@H](n2ccc3c(N[C@@H](CO)c4ccccc4)nc(Cl)nc32)[C@H](O)[C@@H]1O [Compound 218, [(2R,3S,4R,5R)-5-[2-chloro-4-[[(1R)-2-hydroxy-1-phenyl-ethyl]amino]pyrrolo-[2,3-d]pyrimidin-7-yl]-3,4-dihydroxy-tetra-hydrofuran-2-yl]-methoxymethylphos-phonic acid] | 10 to 100 nM | 10 to 100 nM
6 | O=P(O)(O)COC[C@H]1O[C@@H](n2ccc3c(OC4CCCC4)nc(Cl)nc32)[C@H](O)[C@@H]1O [Compound 219, [(2R,3S,4R,5R)-5-[2-chloro-4-(cyclo-pentoxy)pyrrolo[2,3-d]-pyrimidin-7-yl]-3,4-dihydroxy-tetrahydro-furan-2-yl]methoxy-methylphosphonic acid] | 10 to 100 nM | 10 to 100 nM
7 | CC(C)C(=O)COP(=O)(O)COC[C@H]1O[C@@H](n2ccc3c(NC4CCCC4)nc(Cl)nc32)[C@H](O)[C@@H]1O [Compound 222, [(2R,3S,4R,5R)-5-[2-chloro-4-(cyclopentyl-amino)pyrrolo[2,3-d]-pyrimidin-7-yl]-3,4-dihydroxy-tetrahydro-furan-2-yl]methoxy-methyl-(3-methyl-2-oxo-butoxy)phosphinic acid] | 100 to 1000 nM | 100 to 1000 nM
8 | O=P(O)(O)COC[C@H]1O[C@@H](n2ccc3c(NC4CCCC4)nc(C(F)(F)F)nc32)[C@H](O)[C@@H]1O [Compound 231, [(2R,3S,4R,5R)-5-[4-(cyclopentylamino)-2-(trifluoromethyl)-pyrrolo[2,3-d]-pyrimidin-7-yl]-3,4-dihydroxy-tetrahydro-furan-2-yl]methoxy-methylphosphonic acid] | 10 to 100 nM | 10 to 100 nM
9 | O=P(O)(COC[C@H]1O[C@@H](n2ccc3c(NC4CCCC4)nc(Cl)nc32)[C@H](O)[C@@H]1O)OCC(F)(F)F [Compound 232, [(2R,3S,4R,5R)-5-[2-chloro-4-(cyclopentyl-amino)pyrrolo[2,3-d]-pyrimidin-7-yl]-3,4-dihydroxy-tetrahydro-furan-2-yl]methoxy-methyl-(2,2,2-trifluoro-ethoxy)phosphinic acid] | 10 to 100 nM | 10 to 100 nM

More lines, now with the values ahead:

Row | IC50 [1] | IC50 [2] | Compound
10 | < 10 nM | < 10 nM | C[C@H](Nc1nc(C#N)nc2c1ccn2[C@@H]1O[C@H](COCP(=O)(O)O)[C@@H](O)[C@H]1O)c1ccc(C2CC2)cc1 [Compound 204, [(2R,3S,4R,5R)-5-[2-cyano-4-[[(1S)-1-(4-cyclopropylphenyl)-ethyl]amino]pyrrolo-[2,3-d]pyrimidin-7-yl]-3,4-dihydroxy-tetra-hydrofuran-2-yl]-methoxymethylphos-phonic acid]
11 | < 10 nM | < 10 nM | C[C@@H](Nc1nc(C#N)nc2c1ccn2[C@@H]1O[C@H](COCP(=O)(O)O)[C@@H](O)[C@H]1O)c1ccc(C2CC2)cc1 [Compound 205, [(2R,3S,4R,5R)-5-[2-cyano-4-[[(1R)-1-(4-cyclopropylphenyl)-ethyl]amino]pyrrolo-[2,3-d]pyrimidin-7-yl]-3,4-dihydroxy-tetra-hydrofuran-2-yl]-methoxymethylphos-phonic acid]
12 | 10 to 100 nM | 10 to 100 nM | O=P(O)(O)COC[C@H]1O[C@@H](n2ccc3c(-c4ccccc4)nc(Cl)nc32)[C@H](O)[C@@H]1O [Compound 212, [(2R,3S,4R,5R)-5-(2-chloro-4-phenyl-pyrrolo[2,3-d]-pyrimidin-7-yl)-3,4-dihydroxy-tetrahydro-furan-2-yl]methoxy-methylphosphonic acid]
13 | 10 to 100 nM | 10 to 100 nM | O=P(O)(O)COC[C@H]1O[C@@H](n2ccc3c(C4CCCC4)nc(Cl)nc32)[C@H](O)[C@@H]1O [Compound 213, [(2R,3S,4R,5R)-5-(2-chloro-4-cyclopentyl-pyrrolo[2,3-d]-pyrimidin-7-yl)-3,4-dihydroxy-tetrahydro-furan-2-yl]methoxy-methylphosphonic acid]
14 | < 10 nM | < 10 nM | O=P(O)(O)CP(=O)(O)OC[C@H]1O[C@@H](n2ccc3c(NC4CCCC4)nc(Cl)nc32)[C@H](O)[C@@H]1O [Compound 229]
15 | < 10 nM | < 10 nM | O=P(O)(O)COC[C@H]1O[C@@H](n2ccc3c(NC4CCCC4)nc(I)nc32)[C@H](O)[C@@H]1O [Compound 230, [(2R,3S,4R,5R)-5-[4-(cyclopentylamino)-2-iodo-pyrrolo[2,3-d]-pyrimidin-7-yl]-3,4-dihydroxy-tetrahydro-furan-2-yl]methoxy-methylphosphonic acid]
16 | < 10 nM | < 10 nM | O=P(O)(O)COC[C@H]1O[C@@H](n2ncc3c(NC4CCCC4)nc(Cl)nc32)[C@H](O)[C@@H]1O [Compound 240, ((((2R,3S,4R,5R)-5-(6-chloro-4-(cyclopentylamino)-1H-pyrazolo[3,4-d]pyrimidin-1-yl)-3,4-dihydroxytetrahydrofuran-2-yl)methoxy)methyl)phosphonic acid]
17 | < 10 nM | < 10 nM | O=P(O)(O)COC[C@H]1O[C@@H](n2ccc3c(NC4CCCC4)nc(C#CCO)nc32)[C@H](O)[C@@H]1O [Compound 243, [(2R,3S,4R,5R)-5-[4-(cyclopentylamino)-2-(3-hydroxyprop-1-ynyl)pyrrolo[2,3-d]-pyrimidin-7-yl]-3,4-dihydroxy-tetrahydro-furan-2-yl]methoxy-methylphosphonic acid]
18 | < 10 nM | < 10 nM | C#Cc1nc(NC2CCCC2)c2ccn([C@@H]3O[C@H](COCP(=O)(O)O)[C@@H](O)[C@H]3O)c2n1 [Compound 244, [(2R,3S,4R,5R)-5-[4-(cyclopentylamino)-2-ethynyl-pyrrolo[2,3-d]-pyrimidin-7-yl]-3,4-dihydroxy-tetrahydro-furan-2-yl]methoxy-methylphosphonic acid]

From patent publication US11591355B2 (Peloton Therapeutics, Inc., priority 2017, dated 2023)
